# Experimental data as given in US20150071918A1, “PEPTIDES FOR THE TREATMENT OF CANCER” (H. LEE MOFFITT CANCER CENTER AND RESEARCH INSTITUTE, INC., priority 2012, published 2015).
# “Also recorded” adds a separate entry of the source. *1 amine or outer side, *2 acyl side, *3 side chain or, on linkers, in order; H or OH if unused. Where a SMILES comes first, the peptide text is derived from it. Bridges are numbered along the chain shown (N, C = ends). [ ]: non-standard residue; d: D form. The star is where a group is joined. dProlinol(O-CH2CO) = O=C(COC[C@H]1CCCN1[*:1])[*:2]; N(2-Aminoethyl)Gly = O=C(CN(CCN[*:3])[*:1])[*:2]; Nle = CCCC[C@H](N)C(=O)O; Ms = CS(=O)(=O)*
# Columns and labels:
# [1] = test system: pPyk2, pAkt and pErk1/2 in U937 or HL-60 cells; test: Western blot of signaling in AML cells after peptide treatment; format: cell-based; conditions: U937 or HL-60, 50 μM MTI-101, western blot
# Experimental: FIG. 44. U937 or HL-60 cells were treated with 50 μM MTI-101 for the indicated times and pPyk2, pAkt and pErk1/2 were detected by western blot analysis.
# Consistent with data obtained with the linear peptide, we show CD44 and VLA-4 are pulled down using biotin conjugated HM-27 as bait.
# [2] = test system: cleaved caspase-3, ATP in NCI-H929 and U266 MM cells; test: Mechanism of cell death in MM cells (cleaved caspase-3, ATP, ROS); format: cell-based
# Experimental: FIGS. 56A-56F. […] FIG. 56A: Chemical structure of MTI-101 (also referred to herein as HM-27). FIG. 56B: Direct comparison of HYD1 and MTI-101 in NCI-H929 cells. […] FIG. 56F: NCI-H929 and U266 cells were treated with MTI-101 or tert-butyl hydrogen peroxide as a positive control for 1 hour, stained with CellRox Green for 30 minutes and washed, with FACS analysis to determine ROS production. All experiments were run in triplicate and repeated 3 independent times. Statistical significance using ANOVA, *P≦0.05. Similar to linear peptide HYD1, the cyclized peptide MTI-101 induces caspase independent cell death in myeloma cell lines.
# H929-60 cell line = test: Cross-resistance in cell line selected for resistance to HYD1; format: cell-based; conditions: H929-60, selected for resistance to HYD1
# [3] = test system: CD34+ cells from primary AML samples; test: Cell death in primary CD34+ AML cells; format: cell-based, human; conditions: 24 hours
# Experimental: FIG. 45. Primary CD34+AML cells are sensitive to HM-27 (MTI-101) while their normal counterparts are not. Enriched CD34+ cells from peripheral blood and bone marrow of normal individuals were treated with varying doses of HM-27 for 24 hours and then analyzed for cell death as described in the Materials and Methods.
# FIG. 64. MTI-101 induces cell death in primary CD34 progenitor cells from AML patient. […] CD34-positive cells were enriched using immunomagnetic beads in primary AML samples and normal bone marrow aspirates. Cell death was measured by annexin V positivity and FACS analysis.
# Cells were collected after incubation with HM-27 and analyzed for markers of cell death indicative of either apoptosis, autophagy or necrosis. BM-MNCs were isolated from marrow aspirates of AML patients and normal individuals by Ficoll-Paque centrifugation and further enriched for CD34+ cells using immunomagnetic beads. Cell death was assessed by TO-PRO-3 staining followed by FACS analysis.
# [4] = test system: PC9 and HCC4006 cells (activating EGFR mutations); test: MTT survival, combination index with EGFR inhibitor, 72 hours; format: cell-based; conditions: PC9 or HCC4006 cells
# Experimental: FIG. 68. MTI-101 and EGFR inhibitors are synergistic in cell lines with activating EGFR mutations. Cell lines with activating EGFR mutations (PC9 and HCC4006) were treated with varying concentrations of erlotinib or MTI-101 (also referred to as HM-27) for 72 hours and survival was assayed by MTT analysis. Generated data were used to calculate combination index (CI).
# FIG. 69. MTI-101 plus EGFR inhibitors are synergistic in lung cancer cell lines with EGFR activating mutations, and MTI-101 plus MEK inhibitors are synergistic in cell lines arboring activating RAS or BRAFF mutations. Values indicate average calculated combination index (CI). Additive (CI=1), synergism (CI<1) and, antagonism (CI>1). […] Cell viability was measured by the MTT assay. Data generated were used to calculate a Chou and Talalay Combination Index (CI).
smiles,measurement,setting,value
CCCC[C@@H]1NC(=O)CN(S(C)(=O)=O)CCNC(=O)[C@H](CCCCN)NC(=O)[C@H](CC(C)C)NC(=O)[C@H](CCCCN)NC(=O)[C@H](CC(C)C)NC(=O)[C@H](CCCCN)NC(=O)COC[C@H]2CCCN2C(=O)[C@H](Cc2c[nH]c3ccccc23)NC(=O)[C@H](C)NC(=O)[C@H](C(C)C)NC(=O)[C@H](C(C)C)NC1=O [MTI-101] (Ms-[N(2-Aminoethyl)Gly][Nle]VVAW[dProlinol(O-CH2CO)]KLKLK; lactam 1-C),phospho-protein levels in AML cells,[1],"increased the levels of pPyk2 and pErk1/2, but not pAKT"
same,phospho-protein levels in AML cells,[1]; listed as HM-27,induced an early activation of Erk1/2 in AML cells
same,cleaved caspase-3 activity in MM cells,[2],does not induce cleaved caspase-3 activity
same,total cellular ATP in MM cells,[2],reduces total cellular levels of ATP in NCI-H929 and U266 cells
same,cross-resistance,H929-60 cell line,cross-resistance in the H929-60 cell line
same,cell death in primary AML CD34+ cells,[3],Primary AML specimens are sensitive to MTI-101 induced cell death
same,cell death in primary AML CD34+ cells,[3]; listed as HM-27,CD34+ cells from primary AML samples are sensitive to HM-27; also recorded: increased potency in samples from relapsed patients compared to specimens obtained from the newly diagnosed
same,combination with EGFR inhibitor Erlotinib,[4],Synergistic growth inhibition
